Source: ChEMBL document CHEMBL1153419 (J Med Chem, 2009)

Key:
Histamine H1 receptor [1] = target: T1, Histamine H1 receptor (Homo sapiens, UniProt P35367); assay: Agonist activity at human H1 receptor expressed in insect Sf9 cells co-expressing RGS4 assessed as gamma[32P]GTP binding by liquid scintillation counting
Histamine H2 receptor [2] = target: T2, Histamine H2 receptor (Homo sapiens, UniProt P25021); assay: Agonist activity at human H2 receptor expressed in insect Sf9 cells co-expressing GsalphaS fusion protein assessed as gamma[32P]GTP binding by liquid scintillation counting
Histamine H3 receptor [3] = target: T3, Histamine H3 receptor (Homo sapiens, UniProt Q9Y5N1); assay: Agonist activity at human H3 receptor expressed in insect Sf9 cells co-expressing Gialpha2, Gbeta1gamma2 and RGS4 assessed as gamma[32P]GTP binding by liquid scintillation counting
Histamine H4 receptor [4] = target: T4, Histamine H4 receptor (Homo sapiens, UniProt Q9H3N8); assay: Agonist activity at human H4 receptor expressed in insect Sf9 cells co-expressing RGS19 fusion protein and Gialpha2, Gbeta1gamma2 assessed as gamma[32P]GTP binding by liquid scintillation counting
Histamine H1 receptor [5] = target: T1, Histamine H1 receptor; assay: Intrinsic activity at human H1 receptor expressed in insect Sf9 cells co-expressing RGS4 assessed as gamma[32P]GTP binding at 10 uM by liquid scintillation counting relative to histamine
Histamine H2 receptor [6] = target: T2, Histamine H2 receptor; assay: Intrinsic activity at human H2 receptor expressed in insect Sf9 cells co-expressing GsalphaS fusion protein assessed as gamma[32P]GTP binding at 10 uM by liquid scintillation counting relative to histamine
Histamine H3 receptor [7] = target: T3, Histamine H3 receptor; assay: Intrinsic activity at human H3 receptor expressed in insect Sf9 cells co-expressing Gialpha2, Gbeta1gamma2 and RGS4 assessed as gamma[32P]GTP binding at 10 uM by liquid scintillation counting relative to histamine
Histamine H4 receptor [8] = target: T4, Histamine H4 receptor; assay: Intrinsic activity at human H4 receptor expressed in insect Sf9 cells co-expressing RGS19 fusion protein and Gialpha2, Gbeta1gamma2 assessed as gamma[32P]GTP binding at 10 uM by liquid scintillation counting relative to histamine
Histamine H1 receptor [9] = target: Histamine H1 receptor (Cavia porcellus, UniProt P31389); assay: Antagonist activity at histamine H1 receptor in guinea pig ileum assessed as inhibition of histamine-induced contractions; format: functional, tissue-based; conditions: read-out: pA2 (converted)
Histamine H2 receptor [10] = target: T5, Histamine H2 receptor (Cavia porcellus, UniProt P47747); assay: Agonist activity at histamine H2 receptor in guinea pig atrium assessed as increase in heart rate; format: functional, tissue-based, Cardiac atrium
[11] = target: Histamine H2 receptor (Cavia porcellus) (UniProt P47747); assay: Agonist activity at histamine H2 receptor in guinea pig atrium assessed as maximal increase in heart rate relative to histamine; format: functional, tissue-based; conditions: Cardiac atrium
Histamine H2 receptor [12] = target: T5, Histamine H2 receptor; assay: Antagonist activity at histamine H2 receptor in guinea pig right atrium assessed as inhibition of histamine-induced increase in heart rate; format: functional, tissue-based, Cardiac atrium; conditions: read-out: pA2 (converted)
Histamine H1 receptor [13] = target: T1, Histamine H1 receptor; assay: Antagonist activity at human H1 receptor expressed in insect Sf9 cells co-expressing RGS4 assessed as inhibition of histamine-induced gamma[32P]GTP binding by liquid scintillation counting
Histamine H3 receptor [14] = target: T3, Histamine H3 receptor; assay: Antagonist activity at human H3 receptor expressed in insect Sf9 cells co-expressing Gialpha2, Gbeta1gamma2 and RGS4 assessed as inhibition of histamine-induced gamma[32P]GTP binding by liquid scintillation counting
Homo sapiens [15] = organism: Homo sapiens; assay: Selectivity ratio of EC50 for human H1R to EC50 for human H4R
Homo sapiens [16] = organism: Homo sapiens; assay: Selectivity ratio of EC50 for human H2R to EC50 for human H4R
Histamine H4 receptor [17] = target: T4, Histamine H4 receptor; assay: Antagonist activity at human H4 receptor expressed in insect Sf9 cells co-expressing RGS19 fusion protein and Gialpha2, Gbeta1gamma2 assessed as inhibition of histamine-induced gamma[32P]GTP binding by liquid scintillation counting

T5 sequence (P47747 whole entry): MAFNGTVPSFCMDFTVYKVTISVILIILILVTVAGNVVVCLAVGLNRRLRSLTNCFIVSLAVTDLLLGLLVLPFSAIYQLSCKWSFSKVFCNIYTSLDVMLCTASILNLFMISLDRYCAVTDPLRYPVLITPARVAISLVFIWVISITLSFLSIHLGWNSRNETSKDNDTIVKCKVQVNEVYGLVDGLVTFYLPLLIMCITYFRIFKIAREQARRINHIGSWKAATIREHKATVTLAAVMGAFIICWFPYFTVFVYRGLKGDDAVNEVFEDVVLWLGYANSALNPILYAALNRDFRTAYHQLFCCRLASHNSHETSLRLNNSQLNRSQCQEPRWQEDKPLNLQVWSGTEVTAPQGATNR
Histamine H2 receptor (Cavia porcellus), sequence (P47747 whole entry): as above
T4 sequence (Q9H3N8 whole entry, the tested form may be a part): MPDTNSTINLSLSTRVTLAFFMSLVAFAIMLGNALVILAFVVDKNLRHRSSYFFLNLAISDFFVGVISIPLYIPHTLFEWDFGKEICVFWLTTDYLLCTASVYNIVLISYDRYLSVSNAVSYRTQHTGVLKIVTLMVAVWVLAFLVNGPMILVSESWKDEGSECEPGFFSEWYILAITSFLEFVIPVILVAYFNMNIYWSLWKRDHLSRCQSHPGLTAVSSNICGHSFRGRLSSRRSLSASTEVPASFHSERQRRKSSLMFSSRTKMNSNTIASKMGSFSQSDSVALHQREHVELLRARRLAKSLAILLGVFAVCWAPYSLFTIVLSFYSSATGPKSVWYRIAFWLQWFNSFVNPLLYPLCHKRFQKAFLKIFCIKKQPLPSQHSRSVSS
T2 sequence (P25021 whole entry, the tested form may be a part): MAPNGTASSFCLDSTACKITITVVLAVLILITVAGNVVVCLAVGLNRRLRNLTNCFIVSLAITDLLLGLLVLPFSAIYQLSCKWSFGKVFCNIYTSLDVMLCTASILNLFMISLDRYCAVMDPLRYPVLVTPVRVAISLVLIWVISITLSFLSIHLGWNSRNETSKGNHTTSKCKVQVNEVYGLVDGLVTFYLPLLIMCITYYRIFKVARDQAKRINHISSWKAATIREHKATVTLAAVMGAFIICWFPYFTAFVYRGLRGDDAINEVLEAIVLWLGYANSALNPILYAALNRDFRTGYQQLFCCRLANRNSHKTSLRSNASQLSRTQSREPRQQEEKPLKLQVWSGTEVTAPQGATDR
Histamine H1 receptor (Cavia porcellus, UniProt P31389), sequence (P31389 whole entry): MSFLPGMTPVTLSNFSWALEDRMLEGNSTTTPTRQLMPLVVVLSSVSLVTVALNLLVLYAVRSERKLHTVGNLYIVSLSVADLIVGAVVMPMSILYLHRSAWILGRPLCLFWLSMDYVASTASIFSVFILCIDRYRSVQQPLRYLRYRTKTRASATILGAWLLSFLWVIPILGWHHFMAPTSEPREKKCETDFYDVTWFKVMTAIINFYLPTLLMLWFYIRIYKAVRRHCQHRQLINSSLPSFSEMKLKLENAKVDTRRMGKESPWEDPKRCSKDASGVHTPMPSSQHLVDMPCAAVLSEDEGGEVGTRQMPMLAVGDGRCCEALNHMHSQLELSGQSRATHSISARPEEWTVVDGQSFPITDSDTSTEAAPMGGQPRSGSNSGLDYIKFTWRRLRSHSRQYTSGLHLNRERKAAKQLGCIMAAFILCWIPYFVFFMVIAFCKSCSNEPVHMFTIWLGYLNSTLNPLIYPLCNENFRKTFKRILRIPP
T3 sequence (Q9Y5N1 whole entry, the tested form may be a part): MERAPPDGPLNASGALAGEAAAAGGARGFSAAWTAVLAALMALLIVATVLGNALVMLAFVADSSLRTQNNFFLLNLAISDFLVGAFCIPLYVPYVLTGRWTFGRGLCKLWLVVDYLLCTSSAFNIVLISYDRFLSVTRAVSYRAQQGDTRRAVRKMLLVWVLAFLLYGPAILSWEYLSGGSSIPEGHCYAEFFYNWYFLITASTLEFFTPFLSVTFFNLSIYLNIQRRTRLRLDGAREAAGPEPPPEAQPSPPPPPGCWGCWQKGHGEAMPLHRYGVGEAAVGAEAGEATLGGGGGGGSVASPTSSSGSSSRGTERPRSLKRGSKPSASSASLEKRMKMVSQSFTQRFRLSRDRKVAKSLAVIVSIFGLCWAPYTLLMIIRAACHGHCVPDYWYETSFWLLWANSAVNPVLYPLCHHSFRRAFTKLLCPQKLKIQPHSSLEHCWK
T1 sequence (P35367 whole entry, the tested form may be a part): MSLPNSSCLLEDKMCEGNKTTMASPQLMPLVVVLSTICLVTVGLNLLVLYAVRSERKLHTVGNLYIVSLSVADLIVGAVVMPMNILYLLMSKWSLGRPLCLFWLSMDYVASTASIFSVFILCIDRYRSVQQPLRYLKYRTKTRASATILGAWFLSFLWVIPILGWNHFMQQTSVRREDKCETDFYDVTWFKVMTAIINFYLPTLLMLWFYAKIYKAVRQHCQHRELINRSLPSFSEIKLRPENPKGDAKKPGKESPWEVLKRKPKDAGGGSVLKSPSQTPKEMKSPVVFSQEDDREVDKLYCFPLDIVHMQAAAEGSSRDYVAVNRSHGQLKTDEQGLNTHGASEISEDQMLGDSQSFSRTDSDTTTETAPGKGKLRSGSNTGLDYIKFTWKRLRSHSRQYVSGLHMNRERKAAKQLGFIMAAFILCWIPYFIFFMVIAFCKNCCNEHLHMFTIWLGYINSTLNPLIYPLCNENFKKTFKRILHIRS

Row | SMILES | EC50 (Histamine H1 receptor [1]) | EC50 (Histamine H2 receptor [2]) | EC50 (Histamine H3 receptor [3]) | EC50 (Histamine H4 receptor [4]) | Activity (Histamine H1 receptor [5]) | Activity (Histamine H2 receptor [6]) | Activity (Histamine H3 receptor [7]) | Activity (Histamine H4 receptor [8]) | Kb (Histamine H1 receptor [9]) | EC50 (Histamine H2 receptor [10]) | Activity [11] | Kb (Histamine H2 receptor [12]) | pKb (Histamine H1 receptor [13]) | pKb (Histamine H3 receptor [14]) | Selectivity ratio (Homo sapiens [15]) | Selectivity ratio (Homo sapiens [16]) | pKb (Histamine H4 receptor [17])
1 | CCCC(=O)/N=C(\N)NCCCc1c[nH]cn1 | 2190 nM | 141 nM | 1.58 nM | 2.57 nM | 0.33 | 0.77 | 0.37 | 0.96 | 3550 nM | 186 nM | 0.97 | 407 nM |  |  |  |  | 
2 | CC(=O)NC(N)=NCCCc1cnc[nH]1 | 12900 nM | 724 nM | 3.63 nM | 4.9 nM |  |  |  |  | 8510 nM | 813 nM |  | 363 nM |  |  |  |  | 
3 | CC(CC(=O)/N=C(\N)NCCCc1c[nH]cn1)c1ccccc1 (stereo not drawn) |  |  |  |  | 0.35 | 0.87 | 0.24 | 0.84 |  |  | 0.99 |  | < 4.9 |  |  |  | 
4 | CC(CC(=O)NC(N)=NCCCc1cnc[nH]1)c1ccccc1 (stereo not drawn) |  |  | 2.51 nM |  |  |  |  |  |  |  |  |  |  |  |  |  | 
5 | CN(CCC(=O)/N=C(\N)NCCCc1c[nH]cn1)C(=O)c1cc2ccccc2[nH]1 |  | 347 nM | 11 nM | 151 nM |  | 0.68 | 0.3 | 0.52 | 3020 nM | 3550 nM | 0.84 |  |  |  |  |  | 
6 | CC(C)C(=O)/N=C(\N)NCCCc1c[nH]cn1 | 2570 nM | 110 nM | 1.41 nM | 3.72 nM | 0.35 | 0.86 | 0.26 | 0.94 | 7760 nM | 110 nM | 0.98 | 302 nM |  |  |  |  | 
7 | CCC(=O)/N=C(\N)NCCCc1c[nH]cn1 | 3470 nM | 372 nM | 1.58 nM |  | 0.3 | 0.83 | 0.39 |  | 5130 nM |  | 0.94 | 347 nM |  |  |  |  | 
8 | S=C(NC1CCCCC1)N1CCC(c2cnc[nH]2)CC1 |  |  |  |  |  |  | -0.71 | -0.95 |  |  |  |  |  |  |  |  | 
9 | N/C(=N\C(=O)CCNC(=O)c1cc2ccccc2[nH]1)NCCCc1c[nH]cn1 |  | 83.2 nM |  | 33.1 nM |  | 0.33 | 0.1 | 0.37 |  |  |  |  |  | 7.17 |  |  | 
10 | N/C(=N\C(=O)Cc1c[nH]c2ccccc12)NCCCc1c[nH]cn1 |  | 36.3 nM |  | 19.1 nM | 0 | 0.81 | -0.15 | 0.7 | 38.9 nM | 182 nM | 0.91 |  | 5.68 | 7.51 |  |  | 
11 | CC(=O)/N=C(\N)NCCCc1c[nH]cn1 |  |  |  |  | 0.24 | 0.76 | 0.27 | 1 |  |  | 0.83 |  |  |  | > 1000 | > 100 | 
12 | N/C(=N\C(=O)CCCNC(=O)c1cc2ccccc2[nH]1)NCCCc1c[nH]cn1 |  | 30.2 nM |  |  | 0.16 | 0.51 | -0.18 | -0.06 | 741 nM | 490 nM | 0.9 |  | 4.96 | 7.17 |  |  | 7.02
13 | N/C(=N\C(=O)CNC(=O)c1cc2ccccc2[nH]1)NCCCc1c[nH]cn1 |  | 955 nM | 15.8 nM | 28.2 nM |  | 0.51 | 0.45 | 0.71 |  |  |  |  |  |  |  |  | 
14 | N/C(=N\C(=O)c1cc2ccccc2[nH]1)NCCCc1c[nH]cn1 | 1700 nM | 288 nM |  |  | 0.42 | 0.87 | -0.38 | 0.21 |  |  |  |  |  | 6.96 |  |  | 6.43
15 | N/C(=N\C(=O)CCc1c[nH]c2ccccc12)NCCCc1c[nH]cn1 |  | 81.3 nM |  | 7.08 nM | 0.09 | 0.77 | -0.18 | 0.45 | 398 nM | 77.6 nM | 1.01 | 437 nM | 5.4 | 7.57 |  |  | 
16 | N=C(N)NCCCc1c[nH]cn1 |  |  |  |  |  | 0.66 | 0.69 | 0.83 |  |  |  |  | < 5 |  |  |  | 
